Laboratory results reported in PMC12040169 (PLOS Biology, 2025).

Assay: in vitro
Details: human, hela cells, % viability

SMILES | viability at 28.5 h, 10 µM [%]
Cc1nc(C)c(C(=O)Nc2ccc3c(c2)CN(Cc2ccccc2)C3)o1 [CBK281835] | 91.2
CCn1c(C)nc2cc(NC(=O)c3cnn(C)c3)ccc21 [CBK281837] | 86.1
Cn1cc(C(=O)Nc2ccc3c(c2)CN(Cc2ccccc2)C3)cn1 [CBK281838] | 94.8
O=C(Cn1cccn1)N1CCc2[nH]c3ccccc3c2C1 [CBK281839] | 92.6
O=C(COCc1nc2ccccc2[nH]1)N1CCC(c2ccccc2)C1 (centres unmarked) [CBK281840] | 97.7
Cc1nc2cc(C(=O)N3CCC(c4ccccc4)C3)ccc2n1C (centres unmarked) [CBK281841] | 66.5
O=C(Cn1ncc2ccccc2c1=O)N1CCC(c2ccccc2)C1 (centres unmarked) [CBK281843] | 90.7
Cn1nc2c(c1C(=O)N1CCc3[nH]c4ccccc4c3C1)CCCC2 [CBK281844] | 79.7
CCN1CCC(CC(=O)N2CCc3[nH]c4ccccc4c3C2)CC1 [CBK281846] | 86.5
O=C(c1cc(-c2cccnc2)[nH]n1)N1CCC(c2ccccc2)C1 (centres unmarked) [CBK281849] | 101
O=C(c1n[nH]c2c1CCC2)N1CCC(c2ccccc2)C1 (centres unmarked) [CBK281851] | 87.9
Cc1noc(C)c1CC(=O)N(C)CCN1CCCCC1 [CBK281855] | 88.8
Cc1nccn1CCNC(=O)c1c2c(nn1C)CCCC2 [CBK281857] | 100
Cc1ccc(C2(C(=O)NCCn3ccnc3C)CCOCC2)cc1 [CBK281858] | 95
Cc1noc(C)c1CC(=O)NCC(C)(C)N1CCCCC1 [CBK281863] | 90.3
CN(C)Cc1ccc(C(=O)NCC(C)(C)N2CCCCC2)cc1 [CBK281865] | 104
Cc1nc(C)c(C(=O)NCC(C)(C)N2CCCCC2)o1 [CBK281866] | 94.2
CCN(C(=O)c1cc2ccc(N(C)C)cc2[nH]1)C1CCN(C)CC1 [CBK281867] | 79.8
Cc1nccn1CCC1CCN(C(=O)c2cn3ccccc3n2)CC1 [CBK281868] | 91.2
O=C(c1cc2c([nH]1)CCCC2)N1CCC(CCN2CCOCC2)CC1 [CBK281869] | 88.9
CCN(C(=O)Cn1c(=O)cc(C)c2ccccc21)C1CCN(C)CC1 [CBK281871] | 86.8
O=C(CCCn1ccnc1)N1CCc2[nH]c3ccccc3c2C1 [CBK281872] | 101
Cn1c(CCC(=O)NCC(C)(C)N2CCCCC2)nc2ccccc21 [CBK281877] | 92.9
CC(C)(CNC(=O)Cn1cnc2ccccc21)N1CCCCC1 [CBK281879] | 95.8

SMILES | viability at 28.5 h, 10 µM [%]
CCn1c(C)nc2cc(NC(=O)c3ccc(CN(C)C)cc3)ccc21 [CBK281880] | 106
CCC(c1ccc(F)cc1)n1cncc1-c1cnn(C)c1 (centres unmarked) [CBK281883] | 95.7
CC(NC(=O)Cn1cnc2ccccc21)c1ccccn1 (centres unmarked) [CBK281884] | 96.7
Cc1nc2ccc(C(=O)NC(C)c3ccccn3)cc2s1 (centres unmarked) [CBK281890] | 94.6
O=C1CC[C@@H](C(=O)N2CCc3nc(-c4ccccc4F)sc3C2)N1 [CBK281891] | 82.1
Cn1c(CN2CCN(C3CCCCC3)C(=O)C2)nc2ccccc21 [CBK281893] | 90.9
Cc1cc(C(=O)NCCn2ccnc2C)nc2ccccc12 [CBK281894] | 101
Cc1cc(C(=O)NCCn2ccnc2C)c2ccccc2n1 [CBK281895] | 100
Cn1nccc1CN1CCCC(COc2ccc(F)cc2)C1 (centres unmarked) [CBK281899] | 95.2
CN(CCN1CCCCC1)C(=O)Cn1ccnc1-c1ccccc1 [CBK281900] | 91.3
Cc1ncc(CN2CCCC(Cc3nc4ccccc4[nH]3)C2)s1 (centres unmarked) [CBK281902] | 99.7
Cc1ccc(C2(C(=O)NC(C)c3ccccn3)CCOCC2)cc1 (centres unmarked) [CBK281903] | 90.5
CN(CCN1CCCCC1)C(=O)c1c2c(nn1C)CCCC2 [CBK281905] | 102
Cc1oc2c(c1C(=O)N(C)CCN1CCCCC1)CCCC2 [CBK281907] | 90.8
Cc1cc(CN(C)Cc2cnn(-c3ccc(Cl)cc3)c2)n[nH]1 [CBK281912] | 99.3
Cc1cc(CN(C)Cc2c(C)nc3ccc(Cl)cn23)n[nH]1 [CBK281913] | 108
O=C(c1cc[nH]n1)N1CCc2nc(-c3cccc(F)c3)sc2C1 [CBK281915] | 84.9
Cc1nc(C(F)(F)F)ccc1C(=O)N(C)CCN1CCCCC1 [CBK281917] | 87.3
CN(C)CC(=O)N1CCc2nc(-c3ccccc3F)sc2C1 [CBK281918] | 85.6
Cc1nc2ccc(C(=O)N(C)CCN3CCCCC3)cc2s1 [CBK281919] | 93.4
CCN(C(=O)c1cc(C)nc2ccccc12)C1CCN(C)CC1 [CBK281920] | 106
CC(C)c1nnc(CCC(=O)N2CCC(c3ccccc3)C2)o1 (centres unmarked) [CBK281925] | 89.3
Cc1ccc2cc(CNc3ccc4[nH]ncc4c3)c(=O)[nH]c2c1 [CBK281935] | 86.1
O=C(NC1CCCC1)c1ncoc1-c1ccccc1 [CBK281937] | 100

SMILES | viability at 28.5 h, 10 µM [%]
CCc1ccc2nc3c(cc2c1)CNCCO3 [CBK281940] | 91.6
O=C(c1ccccc1F)N1CCC(O)(c2ccc(F)cc2)CC1 [CBK281943] | 80.9
O=C(Nc1ccc(F)cc1)N1C2CCC1CC(O)(c1cccnc1)C2 (centres unmarked) [CBK281946] | 89.9
CN(C)Cc1ccc(C(=O)N2CCCC2(C)C(=O)N(C)C)cc1 (centres unmarked) [CBK281955] | 90
Cc1cc(C(=O)N(C)CC2(C)COC2)nc2ccccc12 [CBK281956] | 90.2
CC1CCN(S(=O)(=O)N2CCCC2c2cccc(F)c2)CC1 (centres unmarked) [CBK281957] | 93.2
Cc1c(CN2CCCC2(C)C(=O)NC2CCCC2)cnn1C (centres unmarked) [CBK281960] | 108
O=C1CN(Cc2ccc3ccccc3n2)CCN1C1CCCC1 [CBK281961] | 88.6
Cc1nccn1CCNC(=O)CCc1cn(C)c2ccccc12 [CBK281962] | 86.1
CN(CC1(C)COC1)C(=O)Cc1cccc2cccnc12 [CBK281963] | 91.7
Cc1ccn2c(CN3CCCC(Cn4ccnc4C)C3)c(C)nc2c1 (centres unmarked) [CBK281964] | 86.6
Cc1nccn1CC1CCCN(Cc2ccnc3ccccc23)C1 (centres unmarked) [CBK281966] | 84.7
Cc1cccc(CCNC(=O)C2CN(C(=O)C3CCN(C)CC3)C2)c1 [CBK281967] | 98.4
Cc1nn(C)cc1CN1CCC(C(=O)NCCc2ccccc2)C1 (centres unmarked) [CBK281968] | 111
CN(C)C(=O)C1CN(C(=O)C(C)(C)c2ccccc2F)C1 [CBK281970] | 113
Cc1nn(C)cc1-c1cncn1CCCn1ccnc1C(C)C [CBK281972] | 81.6
Cc1nccn1CCC1CCN(C(=O)CC2CCCCO2)CC1 (centres unmarked) [CBK281974] | 84.3
Cc1nccn1CCNC(=O)CCc1nc2ccccc2n1C [CBK281978] | 95.3
Cc1nccn1CCNC(=O)c1ccccc1Cn1cccn1 [CBK281979] | 101
CC(C)(C)NC(=O)Cn1cncc1-c1ccc2c(c1)CC(C)(C)O2 [CBK281980] | 113
CCN1CCC(CC(=O)NCCn2ccnc2C)CC1 [CBK281984] | 108
Cc1nn(C)cc1-c1cncn1Cc1ccccc1CN(C)C [CBK281985] | 102
O=C(CCCn1ccnc1)Nc1ccc(OC2CCCC2)cc1 [CBK281986] | 92.3
Cc1nn(C)cc1-c1cncn1C(CCN(C)C)c1ccccc1 (centres unmarked) [CBK281987] | 92.3

SMILES | viability at 28.5 h, 10 µM [%]
Cc1nccn1CCC1CCN(C(=O)CCCn2ccnc2)CC1 [CBK281988] | 95.3
Cc1cc(CN(C)Cc2ccc(-n3ccnc3C)cc2)n[nH]1 [CBK281989] | 97.6
Cc1nccn1CCN(C)C(=O)c1ccc2c(c1)ncn2C [CBK281993] | 98.8
CCN(C(=O)CCc1nc2ccccc2n1C)C1CCN(C)CC1 [CBK281994] | 89.9
COc1ccccc1C1CCCN1Cc1c(C)nc2ccccn12 (centres unmarked) [CBK281995] | 91.9
Cc1cnn(CC(=O)N2CCCC(COc3ccccc3F)C2)c1 (centres unmarked) [CBK281999] | 102
Cc1nn(C)c(C)c1CN(C)C(=O)CCC(C)N1CCCC1 (centres unmarked) [CBK282001] | 101
CN(C)CC1CCCN(C(=O)C2C3CCCCC32)C1 (centres unmarked) [CBK282002] | 82.3
Cc1cc(N(C)C)cc(C2CCCN(C(=O)c3cccc(F)c3)C2)n1 (centres unmarked) [CBK282003] | 95.1
Cc1cc(S(=O)(=O)NCC(C)n2nc(C)c(C)c2C)ccc1F (centres unmarked) [CBK282010] | 87.4
O=C(c1ccccc1F)N1CCN(C(=O)[C@@H]2C[C@@H]3C=C[C@H]2C3)CC1 [CBK282011] | 89.1
CSc1nnc(C2CCCN2C(=O)[C@@H]2C[C@@H]3C=C[C@H]2C3)n1C (some centres unmarked) [CBK282012] | 79.8
CN1CCN(C(=O)c2cccc(-n3cccn3)c2)C(c2ccccc2)C1 (centres unmarked) [CBK282013] | 90.5
CN1CCN(C(=O)CCC2CCCO2)C(c2ccccc2)C1 (centres unmarked) [CBK282015] | 101
CC(Cn1cc(Cl)cn1)C(=O)N1CCN(C)CC1c1ccccc1 (centres unmarked) [CBK282016] | 111
CCn1nc(C(C)C)cc1C(=O)N1CCN(C)CC1c1ccccc1 (centres unmarked) [CBK282025] | 100
CC(C(=O)N1CCCC(COc2ccc(F)cc2)C1)n1ccnc1 (centres unmarked) [CBK282027] | 85.8
CCc1nccn1CCC(=O)NC(c1ccc(C)cc1)c1cccnc1 (centres unmarked) [CBK282032] | 103
O=C(CCCc1ccccn1)N(Cc1ccccn1)C1CCCC1 [CBK282033] | 99.9
COC(C)CN(C)C(=O)c1cc2cc(C)ccc2nc1C (centres unmarked) [CBK282036] | 86.5
COc1ccc2oc(C(=O)N(C)CC(C)OC)c(C)c2c1 (centres unmarked) [CBK282037] | 94.4
Cc1c(CN2CCC(N(C)CCN(C)C)CC2)oc2ccccc12 [CBK282038] | 86.1
CCn1cc(CN2CCN(C(=O)c3csc(C(C)C)c3)CC2)cn1 [CBK282044] | 88.1
